Measurements as given in patent EP0908457B1, “3-(1,2-benzisothiazol- and isoxazol-5-Y1)-2,4(1H,3H)-pyrimidinedione or thione and 3-(1,2-benzisothiazol- and isoxazol-5-y1)-4(3H)-pyrimidinone or thione herbicidal agents” (BASF AKTIENGESELLSCHAFT, priority 1997, dated 1999).

Experiments:
[1] = tested on: Echinochloa oryzoides (Ard.) Fritsch.; assay: Preemergence weed control under flooded paddy conditions, ECHORC (Watergrass (Calif.)); assay type: in vivo; details: preemergence, flooded paddy, rated three to four weeks after treatment; note: meaning of each grade not given here
Cyperus iria [2] = assay: Preemergence weed control under flooded paddy conditions, CYPIR (Rice Flatsedge); assay type: in vivo; details: preemergence, flooded paddy, rated three to four weeks after treatment; note: meaning of each grade not given here
[3] = tested on: Cyperus serotinus, Rottb.; assay: Preemergence weed control under flooded paddy conditions, CYPSE (Flatsedge); assay type: in vivo; details: preemergence, rated three to four weeks after treatment; note: meaning of each grade not given here
[4] = tested on: Monochoria vaginalis, Presl.; assay: Preemergence weed control under flooded paddy conditions, MOOVA (Monochoria); assay type: in vivo; details: preemergence, flooded paddy, rated three to four weeks after treatment; note: meaning of each grade not given here
Sagittaria pygmaea, L. [5] = assay: Preemergence weed control under flooded paddy conditions, SAGPY (Arrowhead (Pygmaea)); assay type: in vivo; details: preemergence, flooded paddy, rated three to four weeks after treatment; note: meaning of each grade not given here
[6] = tested on: Echinochloa oryzoides (Ard.) Fritsch.; assay: Postemergence weed control under flooded paddy conditions, ECHORC (Watergrass (Calif.)); assay type: in vivo; details: rated three to four weeks after treatment
Cyperus iria [7] = assay: Postemergence weed control under flooded paddy conditions, CYPIR (Rice Flatsedge); assay type: in vivo; details: rated three to four weeks after treatment
[8] = tested on: Cyperus serotinus, Rottb.; assay: Postemergence weed control under flooded paddy conditions, CYPSE (Flatsedge); assay type: in vivo; details: rated three to four weeks after treatment
[9] = tested on: Monochoria vaginalis, Presl.; assay: Postemergence weed control under flooded paddy conditions, MOOVA (Monochoria); assay type: in vivo; details: rated three to four weeks after treatment
Sagittaria pygmaea, L. [10] = assay: Postemergence weed control under flooded paddy conditions, SAGPY (Arrowhead (Pygmaea)); assay type: in vivo; details: rated three to four weeks after treatment
[11] = tested on: Oryza sativa, (L.) Tebonnet; assay: Rice tolerance to post-transplant applications under flooded paddy conditions (Example 187), ORYSAT (Rice, Tebonnet); details: rated three to four weeks after treatment
[12] = tested on: Oryza sativa, (L.) Tebonnet; assay: Rice tolerance to post-transplant applications under flooded paddy conditions (Example 188), ORYSAT (Rice, Tebonnet); details: rated three to four weeks after treatment

Compound: COC(=O)COc1cc(C)c(C)cc1-c1nsc2ccc(-n3c(=O)cc(C(F)(F)F)n(C)c3=O)cc12 [Example 12, Methyl {{6-{5-[3,6-dihydro-3-methyl-4-(trifluoromethyl)-2,6-dioxo-1(2H)-pyrimidinyl]-1,2-benzisothiazol-3-yl}-3,4-xylyl}oxy}acetate]
- herbicidal effect rating, ECHORC ([1]; 0.0313 kg/ha): 9.0
- herbicidal effect rating, ECHORC ([1]; 0.0625 kg/ha): 9.0
- herbicidal effect rating, ECHORC ([1]; 0.1250 kg/ha): 9.0
- herbicidal effect rating, ECHORC ([1]; 0.2500 kg/ha): 9.0
- herbicidal effect rating, ECHORC ([1]; 0.5000 kg/ha): 9.0
- herbicidal effect rating, CYPIR (Cyperus iria [2]; 0.0313 kg/ha): 9.0
- herbicidal effect rating, CYPIR (Cyperus iria [2]; 0.0625 kg/ha): 9.0
- herbicidal effect rating, CYPIR (Cyperus iria [2]; 0.1250 kg/ha): 9.0
- herbicidal effect rating, CYPIR (Cyperus iria [2]; 0.2500 kg/ha): 9.0
- herbicidal effect rating, CYPIR (Cyperus iria [2]; 0.5000 kg/ha): 9.0
- herbicidal effect rating, CYPSE ([3]; 0.0313 kg/ha): 6.0
- herbicidal effect rating, CYPSE ([3]; 0.0625 kg/ha): 7.0
- herbicidal effect rating, CYPSE ([3]; 0.1250 kg/ha): 8.0
- herbicidal effect rating, CYPSE ([3]; 0.2500 kg/ha): 7.0
- herbicidal effect rating, CYPSE ([3]; 0.5000 kg/ha): 7.0
- herbicidal effect rating, MOOVA ([4]; 0.0313 kg/ha): 9.0
- herbicidal effect rating, MOOVA ([4]; 0.0625 kg/ha): 9.0
- herbicidal effect rating, MOOVA ([4]; 0.1250 kg/ha): 9.0
- herbicidal effect rating, MOOVA ([4]; 0.2500 kg/ha): 9.0
- herbicidal effect rating, MOOVA ([4]; 0.5000 kg/ha): 9.0
- herbicidal effect rating, SAGPY (Sagittaria pygmaea, L. [5]; 0.0313 kg/ha): 0.0
- herbicidal effect rating, SAGPY (Sagittaria pygmaea, L. [5]; 0.0625 kg/ha): 2.0
- herbicidal effect rating, SAGPY (Sagittaria pygmaea, L. [5]; 0.1250 kg/ha): 4.0
- herbicidal effect rating, SAGPY (Sagittaria pygmaea, L. [5]; 0.2500 kg/ha): 9.0
- herbicidal effect rating, SAGPY (Sagittaria pygmaea, L. [5]; 0.5000 kg/ha): 9.0
- herbicidal effect rating, ECHORC ([6]; Rate 0.0313 kg/ha): 0.0
- herbicidal effect rating, ECHORC ([6]; Rate 0.0625 kg/ha): 2.0
- herbicidal effect rating, ECHORC ([6]; Rate 0.1250 kg/ha): 6.0
- herbicidal effect rating, ECHORC ([6]; Rate 0.2500 kg/ha): 9.0
- herbicidal effect rating, ECHORC ([6]; Rate 0.5000 kg/ha): 9.0
- herbicidal effect rating, CYPIR (Cyperus iria [7]; Rate 0.0313 kg/ha): 9.0
- herbicidal effect rating, CYPIR (Cyperus iria [7]; Rate 0.0625 kg/ha): 9.0
- herbicidal effect rating, CYPIR (Cyperus iria [7]; Rate 0.1250 kg/ha): 9.0
- herbicidal effect rating, CYPIR (Cyperus iria [7]; Rate 0.2500 kg/ha): 9.0
- herbicidal effect rating, CYPIR (Cyperus iria [7]; Rate 0.5000 kg/ha): 9.0
- herbicidal effect rating, CYPSE ([8]; Rate 0.0313 kg/ha): 0.0
- herbicidal effect rating, CYPSE ([8]; Rate 0.0625 kg/ha): 0.0
- herbicidal effect rating, CYPSE ([8]; Rate 0.5000 kg/ha): 2.0
- herbicidal effect rating, MOOVA ([9]; Rate 0.0313 kg/ha): 9.0
- herbicidal effect rating, MOOVA ([9]; Rate 0.0625 kg/ha): 9.0
- herbicidal effect rating, MOOVA ([9]; Rate 0.1250 kg/ha): 9.0
- herbicidal effect rating, MOOVA ([9]; Rate 0.2500 kg/ha): 9.0
- herbicidal effect rating, MOOVA ([9]; Rate 0.5000 kg/ha): 9.0
- herbicidal effect rating, SAGPY (Sagittaria pygmaea, L. [10]; Rate 0.0313 kg/ha): 0.0
- herbicidal effect rating, SAGPY (Sagittaria pygmaea, L. [10]; Rate 0.0625 kg/ha): 0.0
- herbicidal effect rating, SAGPY (Sagittaria pygmaea, L. [10]; Rate 0.1250 kg/ha): 0.0
- herbicidal effect rating, SAGPY (Sagittaria pygmaea, L. [10]; Rate 0.2500 kg/ha): 4.0
- herbicidal effect rating, SAGPY (Sagittaria pygmaea, L. [10]; Rate 0.5000 kg/ha): 9.0
- herbicidal effect rating, ORYSAT (rice tolerance) ([11]; 0.0313 kg/ha): 4.0
- herbicidal effect rating, ORYSAT (rice tolerance) ([11]; 0.0625 kg/ha): 7.0
- herbicidal effect rating, ORYSAT (rice tolerance) ([11]; 0.1250 kg/ha): 7.0
- herbicidal effect rating, ORYSAT (rice tolerance) ([11]; 0.2500 kg/ha): 8.0
- herbicidal effect rating, ORYSAT (rice tolerance) ([11]; 0.5000 kg/ha): 9.0
- herbicidal effect rating, ORYSAT (rice tolerance) ([12]; Rate 0.0313 kg/ha): 4.0
- herbicidal effect rating, ORYSAT (rice tolerance) ([12]; Rate 0.0625 kg/ha): 4.0
- herbicidal effect rating, ORYSAT (rice tolerance) ([12]; Rate 0.1250 kg/ha): 7.0
- herbicidal effect rating, ORYSAT (rice tolerance) ([12]; Rate 0.2500 kg/ha): 7.0
- herbicidal effect rating, ORYSAT (rice tolerance) ([12]; Rate 0.5000 kg/ha): 7.0

Compound: COc1ccc(C)cc1-c1nsc2ccc(-n3c(=O)cc(C(F)(F)F)n(C)c3=O)cc12 [Example 1, 3-[3-(6-Methoxy-m-tolyl)-1,2-benzisothiazol-5-yl]-1-methyl-6-(trifluoromethyl)-2,4(1H,3H)-pyrimidinedione]
- herbicidal effect rating, ECHORC ([1]; 0.0313 kg/ha): 9.0
- herbicidal effect rating, ECHORC ([1]; 0.0625 kg/ha): 9.0
- herbicidal effect rating, ECHORC ([1]; 0.1250 kg/ha): 9.0
- herbicidal effect rating, ECHORC ([1]; 0.2500 kg/ha): 9.0
- herbicidal effect rating, ECHORC ([1]; 0.5000 kg/ha): 9.0
- herbicidal effect rating, CYPIR (Cyperus iria [2]; 0.0313 kg/ha): 9.0
- herbicidal effect rating, CYPIR (Cyperus iria [2]; 0.0625 kg/ha): 9.0
- herbicidal effect rating, CYPIR (Cyperus iria [2]; 0.1250 kg/ha): 9.0
- herbicidal effect rating, CYPIR (Cyperus iria [2]; 0.2500 kg/ha): 9.0
- herbicidal effect rating, CYPIR (Cyperus iria [2]; 0.5000 kg/ha): 9.0
- herbicidal effect rating, CYPSE ([3]; 0.0313 kg/ha): 1.3
- herbicidal effect rating, CYPSE ([3]; 0.0625 kg/ha): 3.0
- herbicidal effect rating, CYPSE ([3]; 0.1250 kg/ha): 6.0
- herbicidal effect rating, CYPSE ([3]; 0.2500 kg/ha): 9.0
- herbicidal effect rating, CYPSE ([3]; 0.5000 kg/ha): 8.0
- herbicidal effect rating, MOOVA ([4]; 0.0313 kg/ha): 9.0
- herbicidal effect rating, MOOVA ([4]; 0.0625 kg/ha): 9.0
- herbicidal effect rating, MOOVA ([4]; 0.1250 kg/ha): 9.0
- herbicidal effect rating, MOOVA ([4]; 0.2500 kg/ha): 9.0
- herbicidal effect rating, MOOVA ([4]; 0.5000 kg/ha): 9.0
- herbicidal effect rating, SAGPY (Sagittaria pygmaea, L. [5]; 0.0313 kg/ha): 3.3
- herbicidal effect rating, SAGPY (Sagittaria pygmaea, L. [5]; 0.0625 kg/ha): 5.0
- herbicidal effect rating, SAGPY (Sagittaria pygmaea, L. [5]; 0.1250 kg/ha): 6.7
- herbicidal effect rating, SAGPY (Sagittaria pygmaea, L. [5]; 0.2500 kg/ha): 8.3
- herbicidal effect rating, SAGPY (Sagittaria pygmaea, L. [5]; 0.5000 kg/ha): 8.5
- herbicidal effect rating, ECHORC ([6]; Rate 0.0313 kg/ha): 1.0
- herbicidal effect rating, ECHORC ([6]; Rate 0.0625 kg/ha): 2.5
- herbicidal effect rating, ECHORC ([6]; Rate 0.1250 kg/ha): 6.5
- herbicidal effect rating, ECHORC ([6]; Rate 0.2500 kg/ha): 8.0
- herbicidal effect rating, ECHORC ([6]; Rate 0.5000 kg/ha): 9.0
- herbicidal effect rating, CYPIR (Cyperus iria [7]; Rate 0.0313 kg/ha): 0.0
- herbicidal effect rating, CYPIR (Cyperus iria [7]; Rate 0.0625 kg/ha): 4.0
- herbicidal effect rating, CYPIR (Cyperus iria [7]; Rate 0.1250 kg/ha): 9.0
- herbicidal effect rating, CYPIR (Cyperus iria [7]; Rate 0.2500 kg/ha): 9.0
- herbicidal effect rating, CYPIR (Cyperus iria [7]; Rate 0.5000 kg/ha): 9.0
- herbicidal effect rating, CYPSE ([8]; Rate 0.0313 kg/ha): 1.0
- herbicidal effect rating, CYPSE ([8]; Rate 0.0625 kg/ha): 1.0
- herbicidal effect rating, CYPSE ([8]; Rate 0.1250 kg/ha): 3.0
- herbicidal effect rating, CYPSE ([8]; Rate 0.2500 kg/ha): 5.5
- herbicidal effect rating, CYPSE ([8]; Rate 0.5000 kg/ha): 6.5
- herbicidal effect rating, MOOVA ([9]; Rate 0.0313 kg/ha): 0.0
- herbicidal effect rating, MOOVA ([9]; Rate 0.0625 kg/ha): 1.0
- herbicidal effect rating, MOOVA ([9]; Rate 0.1250 kg/ha): 4.5
- herbicidal effect rating, MOOVA ([9]; Rate 0.2500 kg/ha): 5.5
- herbicidal effect rating, MOOVA ([9]; Rate 0.5000 kg/ha): 6.5
- herbicidal effect rating, SAGPY (Sagittaria pygmaea, L. [10]; Rate 0.0313 kg/ha): 0.0
- herbicidal effect rating, SAGPY (Sagittaria pygmaea, L. [10]; Rate 0.0625 kg/ha): 0.0
- herbicidal effect rating, SAGPY (Sagittaria pygmaea, L. [10]; Rate 0.1250 kg/ha): 0.0
- herbicidal effect rating, SAGPY (Sagittaria pygmaea, L. [10]; Rate 0.2500 kg/ha): 1.0
- herbicidal effect rating, SAGPY (Sagittaria pygmaea, L. [10]; Rate 0.5000 kg/ha): 3.0
- herbicidal effect rating, ORYSAT (rice tolerance) ([11]; 0.0313 kg/ha): 4.7
- herbicidal effect rating, ORYSAT (rice tolerance) ([11]; 0.0625 kg/ha): 4.7
- herbicidal effect rating, ORYSAT (rice tolerance) ([11]; 0.1250 kg/ha): 5.3
- herbicidal effect rating, ORYSAT (rice tolerance) ([11]; 0.2500 kg/ha): 7.7
- herbicidal effect rating, ORYSAT (rice tolerance) ([11]; 0.5000 kg/ha): 7.0
- herbicidal effect rating, ORYSAT (rice tolerance) ([12]; Rate 0.0313 kg/ha): 3.0
- herbicidal effect rating, ORYSAT (rice tolerance) ([12]; Rate 0.0625 kg/ha): 3.0
- herbicidal effect rating, ORYSAT (rice tolerance) ([12]; Rate 0.1250 kg/ha): 4.0
- herbicidal effect rating, ORYSAT (rice tolerance) ([12]; Rate 0.2500 kg/ha): 6.0
- herbicidal effect rating, ORYSAT (rice tolerance) ([12]; Rate 0.5000 kg/ha): 7.0
